“And” between values parts separate entries of the source, which are not always exact repeats. Equal values may be shown once.
Experiments:
[1] = tested on: Mycobacterium tuberculosis H37Rv; assay type: in vivo, BALB/c mice
CYP2A6 = assay type: in vitro ADME, mouse
Method: (§1) This example was to detect the CYP450 metabolic enzyme phenotype of the deuterated compound YF027 and its non-deuterated control compound A (using a CYP450 enzyme metabolic phenotype research kit (recombinant enzymatic method/7 enzymes)-mouse liver microsome test).
(§2) • a. The test compound was prepared into a 40 mM stock solution for later use. 2.5 µL of the stock solution was taken and diluted with DMSO to a test compound concentration of 200 µM, and the compound at this concentration was used in subsequent tests. • b. The working solution concentration of the mixed positive substrates, phenacetin and testosterone, was 200 µM.
(§3) 1) The components of the kit were thawed in an ice bath. The mixture was well mixed by vortexing and then placed on ice for later use. 2) In addition to the microsomes, the other components of the incubation systems were mixed according to the ratios and well mixed by pipetting, and the ratios of the incubation systems are shown below; Table 6. Incubation system of positive control group
(§4) The inhibitors were quinidine, naphthoflavone, pilocarpine, sodium diethyldithiocarbamate, ticlopidine, ketoconazole, and sulfaphenazole, which corresponded to the inhibition of CYP450 enzymes CYP2D6, CYP1A2, CYP2A6, CYP2E1, CYP2C19, CYP3A4, and CYP2C9, respectively. Table 9. Incubation system of negative control group
(§5) 3) Except for the negative control group (Table 9), 3.125 µL of liver microsomes was added to each of the above incubation systems to prepare 125 µL of reaction solution. The reaction solutions were well mixed by vortexing, and then placed in a water bath at 37 °C to initiate the reaction. A timer was set. 4) At time points of 0 min and 90 min, 50 µL of reaction solution was taken, and a pre-cooled acetonitrile solution was added to the reaction solution. The mixture was quickly well mixed by vortexing to stop the reaction. 5) Mass spectrometry detection pretreatment of reaction solution
(§6) The reaction solution was cryopreserved in a refrigerator at -80 °C overnight and then centrifuged for mass spectrometry detection.
(§7) The detection values after 90 min of incubation were processed as ratios relative to the 0-min detection values to determine the metabolic rate of the compounds in different experimental groups after 90 min. The metabolic inhibition rate was then calculated using the formula: Inhibition rate (%) = (1 - metabolic rate of sample with inhibitor/metabolic rate of sample without inhibitor) × 100%, as shown in Table 10 below. […] The metabolic inhibition rate reflects the effect on the metabolic elimination of the drug after adding different selective inhibitors. Therefore, when the metabolic inhibition rate of a specific enzyme is ≥ 25%, the contribution of the specific enzyme to the clearance of the drug under study can be inferred to be ≥ 25% based on the results of the in vitro metabolism study.

CYP2D6 = assay type: in vitro ADME, mouse
Method: as §1, §2, §3, §4, §5, §6, §7

CYP2C19 = assay type: in vitro ADME, mouse
Method: as §1, §2, §3, §4, §5, §6, §7

CYP2C9 = assay type: in vitro ADME, mouse
Method: as §1, §2, §3, §4, §5, §6, §7

CYP3A4 = assay type: in vitro ADME, mouse
Method: as §1, §2, §3, §4, §5, §6, §7

CYP1A2 = target: T1, CYP1A2 (Mus musculus, UniProt P00186); assay type: in vitro ADME
T1 construct: from tissue; host or cells: mouse liver microsomes (component of a kit)
T1 sequence (P00186 1-513): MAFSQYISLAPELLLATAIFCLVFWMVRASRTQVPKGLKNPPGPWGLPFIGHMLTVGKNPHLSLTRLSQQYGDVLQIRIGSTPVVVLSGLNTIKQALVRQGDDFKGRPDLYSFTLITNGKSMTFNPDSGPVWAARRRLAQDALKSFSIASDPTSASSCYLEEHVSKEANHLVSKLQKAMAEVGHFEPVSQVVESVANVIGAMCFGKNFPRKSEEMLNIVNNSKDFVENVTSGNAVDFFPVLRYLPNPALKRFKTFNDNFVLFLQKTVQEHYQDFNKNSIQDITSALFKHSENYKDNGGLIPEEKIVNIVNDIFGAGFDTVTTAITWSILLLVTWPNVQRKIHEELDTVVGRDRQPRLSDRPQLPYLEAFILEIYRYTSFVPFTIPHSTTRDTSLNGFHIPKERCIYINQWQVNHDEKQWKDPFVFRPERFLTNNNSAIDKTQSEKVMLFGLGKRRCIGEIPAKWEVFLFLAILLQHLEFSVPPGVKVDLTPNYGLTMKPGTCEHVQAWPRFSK
Method: as §1, §2, §3, §4, §5, §6
as §7, with “Therefore, when the metabolic inhibition rate of a specific enzyme is ≥ 25%, the contribution of the specific enzyme to the clearance of the drug under study can be inferred to be ≥ 25% based on the results of the in vitro metabolism study.” left out

CYP2E1 = target: T2, CYP2E1 (Mus musculus, UniProt Q05421); assay type: in vitro ADME
T2 construct: from tissue; host or cells: mouse liver microsomes (component of a kit)
Method: as §1, §2, §3, §4, §5, §6
as §7, with “Therefore, when the metabolic inhibition rate of a specific enzyme is ≥ 25%, the contribution of the specific enzyme to the clearance of the drug under study can be inferred to be ≥ 25% based on the results of the in vitro metabolism study.” left out

[2] = 28-day repeat-dose toxicity study in mice; assay type: in vivo, Balb/c mice; details: 100 mg/kg intragastric, once daily, 6 days a week, 4 weeks, Balb/c mice
Method: Administration groups of the compound YF027 of the present disclosure and its non-deuterated control compound A were set for a 28-day repeat-dose toxicity study in mice. Each compound was administered to 10 Balb/c mice (5 females and 5 males, purchased from Beijing Vital River Laboratory Animal Technology Co., Ltd.) by intragastric administration. The administration was performed once daily for 6 consecutive days a week for 4 consecutive weeks, and an 8% Tween 80 vehicle control group (10 Balb/c mice, 5 females and 5 males) was set for administration at the same volume using the same method. Table 12. Administration information of repeat-dose toxicity assay
During the administration period, the mice were observed every day. The body weight, appearance signs, behavior and activity, fecal traits, and local reactions at the site of administration were recorded. After the end of the administration, the gross anatomy was performed on the mice in the administration group and the control group. The serum of the mice was collected, and the heart, liver, spleen, kidney, lung, and brain tissues and organs were weighed to calculate organ coefficients. The tissue samples of all groups were subjected to histopathological detection, and the serum samples were analyzed for biochemical parameters of liver and kidney functions. The serum biochemical parameters included: alanine aminotransferase (ALT), aspartate aminotransferase (AST), alkaline phosphatase (ALP), urea (UREA), creatinine (CREA), total protein (TP), and albumin (ALB). Statistical analysis was performed to evaluate potential toxic effects of the compounds.

[3] = Pharmacokinetics and lung tissue distribution in mice, LC-MS/MS; assay type: in vivo, Balb/C mice; details: mouse, in vivo, po, 100 mg/kg
Method: In this example, the pharmacokinetic parameters and lung tissue distribution of the deuterated compounds YF027, YF032, YF036, and YF044 and their respective non-deuterated control compounds (A, B, C, and D) were determined.
Balb/C mice, male (1 group at each time point, 5 mice per group, 55 mice per compound in total), 7-8 weeks old, weighing about 20 g, animal source: Beijing Vital River Laboratory Animal Technology Co., Ltd.
The test compound was completely dissolved in an 8% Tween-80 aqueous solution. A 10 mg/mL drug liquid was prepared for intraperitoneal injection and intragastric administration.
Single intragastric administration was performed at a dose of 100 mg/kg. The pharmacokinetic differences between the deuterated compounds YF027, YF032, YF036, and YF044 and their respective non-deuterated controls A, B, C, and D were compared.
The mice were fasted overnight before administration. In the experiment, orbital venous blood and lung tissue were collected from the mice at time points of no administration group (0 min) and 10 min, 20 min, 30 min, 1 h, 2 h, 3 h, 4 h, 6 h, 8 h, and 24 h after intragastric administration, and about 300 µL of blood was collected from the eyeballs each time.
The collected blood sample was placed in an anticoagulation tube, and quickly inverted and mixed well. The tube was temporarily placed on ice after being labeled. The blood samples temporarily stored on ice were subjected to low-temperature centrifugation within 1 h at 4 °C at 3000 rpm for 10 min. The supernatant obtained after centrifugation was plasma. The plasma was transferred to a new centrifuge tube and stored in a refrigerator at -80 °C for subsequent detection.
The lung tissues of the mice were collected, washed with pre-cooled normal saline to remove the residual blood and tissue fluid, dried with absorbent paper, weighed with a balance, and placed into a centrifuge tube. The tubes were marked and stored in a refrigerator at -80 °C.
The concentrations of the compounds of the present disclosure and control compounds in plasma and lung tissue were determined using LC-MS/MS. Table 2. Pharmacokinetic parameters of compound YF027 of the present disclosure and control compound A

[4] = tested on: Mycobacterium tuberculosis H37Rv; experiment: Minimum inhibitory concentration (MIC90) against Mycobacterium tuberculosis H37Rv, Middlebrook 7H9, 96-well plate, 15 days; assay type: cell-based; details: Mycobacterium tuberculosis, H37RV, 360 h

T2 sequence (Q05421 whole entry): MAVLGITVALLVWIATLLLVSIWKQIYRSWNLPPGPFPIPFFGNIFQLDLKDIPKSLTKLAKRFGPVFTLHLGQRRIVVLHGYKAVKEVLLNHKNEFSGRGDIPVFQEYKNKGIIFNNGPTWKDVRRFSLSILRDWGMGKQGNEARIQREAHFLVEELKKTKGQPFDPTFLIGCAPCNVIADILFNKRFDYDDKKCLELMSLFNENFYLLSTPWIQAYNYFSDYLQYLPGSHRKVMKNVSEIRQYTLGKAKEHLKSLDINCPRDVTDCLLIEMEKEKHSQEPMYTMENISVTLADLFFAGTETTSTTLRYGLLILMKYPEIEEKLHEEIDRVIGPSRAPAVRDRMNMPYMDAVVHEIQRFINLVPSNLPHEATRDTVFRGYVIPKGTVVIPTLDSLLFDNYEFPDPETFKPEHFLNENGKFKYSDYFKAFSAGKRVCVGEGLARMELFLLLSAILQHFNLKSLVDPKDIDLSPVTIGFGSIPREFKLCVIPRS

With `CC(C)(C)c1cc(O)c(CN2CCCCC2)c2c1oc1c3ccc(O)cc3oc(=O)c12` [Compound A, reference compound] as the compound, how does the “pulmonary Mycobacterium tuberculosis clearance rate” value ([1]; 100 mg/kg intragastrically, 4 weeks, mice) read?
Its value is 87.7%.

What about the “reduction of pulmonary bacterial load” value ([1]; mouse, in vivo) of the same compound?
The value was 0.91 log.

What about the Inhibition rate (CYP2A6) of the same compound?
Its Inhibition rate is 4.2%.

What about the Inhibition rate (CYP2D6) of the same compound?
The Inhibition rate was -8.7%.

And the Inhibition rate (CYP2C19)?
Its Inhibition rate is -19.3%.

What about the Inhibition rate (CYP2C9) of the same compound?
The Inhibition rate was -2.8%.

And the Inhibition rate (CYP3A4)?
The Inhibition rate was 76.9%.

And the Inhibition rate (CYP1A2)?
Its Inhibition rate is -11.7%.

What about the Inhibition rate (CYP2E1) of the same compound?
The Inhibition rate was -26.5%.

What about the “mortality during the administration period” value [2] of the same compound?
The value was “no mice died”.

What about the AUC(0-inf) [3] of the same compound?
The AUC(0-inf) was 121 ng·h/mL.

And the AUC(0-t) at 24 h [3]?
Its AUC(0-t) at 24 h is 117 ng·h/mL.

And the Cmax [3]?
The Cmax was 120 ng/mL and 948 ng/g.

And the Tmax [3]?
Its Tmax is 10 min.

And the half-life [3]?
The half-life was 261 min.

And the MIC90 [4]?
The MIC90 was no more than 3.9 ng/mL.
